Results on one compound are retold here after patent US9828393B2, “Silylalkyloxyaryl compounds and methods for treating cancer” (THE REGENTS OF THE UNIVERSITY OF COLORADO, a body corporate, priority 2013, dated 2017).

Holding throughout (type): cell-based, human
For test [1], the system named is CCRF-CEM. Description: NCI-60 cell line screen (SRB), CCRF-CEM. The settings on record: Leukemia, 48 h drug incubation, read-out: GI50. As to the method: (§1) Drug sensitivity data are provided as GI50s (concentrations required to inhibit growth by 50%). The first row of the text file identifies cell lines, separated by tabs. Subsequent rows contain compound number, compound name, and GI50 for each cell line, each separated by a tab. […] For a typical screening experiment, cells are inoculated into 96 well microtiter plates in 100 μL at plating densities ranging from 5,000 to 40,000 cells/well depending on the doubling time of individual cell lines. After cell inoculation, the microtiter plates are incubated at 37° C., 5% CO2, 95% air and 100% relative humidity for 24 h prior to addition of experimental drugs. After 24 h, two plates of each cell line are fixed in situ with TCA, to represent a measurement of the cell population for each cell line at the time of drug addition (Tz). Experimental drugs are solubilized in dimethyl sulfoxide at 400-fold the desired final maximum test concentration and stored frozen prior to use. At the time of drug addition, an aliquot of frozen concentrate is thawed and diluted to twice the desired final maximum test concentration with complete medium containing 50 μg/ml gentamicin. Additional four, 10-fold or one-half log serial dilutions are made to provide a total of five drug concentrations plus control. Aliquots of 100 μl of these different drug dilutions are added to the appropriate microtiter wells already containing 100 μl of medium, resulting in the required final drug concentrations. Following drug addition, the plates are incubated for an additional 48 h at 37° C., 5% CO2, 95% air, and 100% relative humidity. For adherent cells, the assay is terminated by the addition of cold TCA. Cells are fixed in situ by the gentle addition of 50 μl of cold 50% (w/v) TCA (final concentration, 10% TCA) and incubated for 60 minutes at 4° C. The supernatant is discarded, and the plates are washed five times with tap water and air dried. Sulforhodamine B (SRB) solution (100 μl) at 0.4% (w/v) in 1% acetic acid is added to each well, and plates are incubated for 10 minutes at room temperature. After staining, unbound dye is removed by washing five times with 1% acetic acid and the plates are air dried. Bound stain is subsequently solubilized with 10 mM trizma base, and the absorbance is read on an automated plate reader at a wavelength of 515 nm. For suspension cells, the methodology is the same except that the assay is terminated by fixing settled cells at the bottom of the wells by gently adding 50 μl of 80% TCA (final concentration, 16% TCA). Using the seven absorbance measurements [time zero, (Tz), control growth, (C), and test growth in the presence of drug at the five concentration levels (Ti)], the percentage growth is calculated at each of the drug concentrations levels. […]

For test [2], the system named is A549/ATCC. Description: NCI-60 cell line screen (SRB), A549/ATCC. The settings on record: Non-Small Cell Lung Cancer; A549/ATCC; 48 h drug incubation; read-out: GI50. As to the method:
as §1

The subject of test [3] is HOP-62. Nature of the test: NCI-60 cell line screen (SRB), HOP-62. The conditions noted are these: Non-Small Cell Lung Cancer; HOP-62; 48 h drug incubation; read-out: GI50. As to the method: as §1
The subject of test [4] is NCI-H23. Description: NCI-60 cell line screen (SRB), NCI-H23. The settings on record: Non-Small Cell Lung Cancer; NCI-H23; 48 h drug incubation; read-out: GI50. As to the method:
as §1

The subject of test [5] is NCI-H322M. Nature of the test: NCI-60 cell line screen (SRB), NCI-H322M. The conditions noted are these: Non-Small Cell Lung Cancer, 48 h drug incubation, read-out: GI50. On the procedure: as §1
Test [6] deals with Non-Small Cell Lung Cancer cell lines. Description: NCI-60 cell line screen, Non-Small Cell Lung Cancer panel average. The conditions noted are these: average over Non-Small Cell Lung Cancer panel; read-out: GI50 Average. On the procedure: as §1
For test [7], the system named is HCT-116. Description: NCI-60 cell line screen (SRB), HCT-116. The conditions noted are these: Colon Cancer; HCT-116; 48 h drug incubation; read-out: GI50. On the procedure: as §1
Test [8] has as its system HCT-15. Description: NCI-60 cell line screen (SRB), HCT-15. The settings on record: Colon Cancer; HCT-15; 48 h drug incubation; read-out: GI50. On the procedure:
as §1

For test [9], the system named is HT29. Description: NCI-60 cell line screen (SRB), HT29. The settings on record: Colon Cancer; HT29; 48 h drug incubation; read-out: GI50. On the procedure: as §1
The subject of test [10] is SW-620. Nature of the test: NCI-60 cell line screen (SRB), SW-620. The conditions noted are these: Colon Cancer; SW-620; 48 h drug incubation; read-out: GI50. As to the method:
as §1

Test [11] concerns SF-268. Nature of the test: NCI-60 cell line screen (SRB), SF-268. The settings on record: CNS Cancer; SF-268; 48 h drug incubation; read-out: GI50. On the procedure: as §1
Test [12] concerns SF-539. Description: NCI-60 cell line screen (SRB), SF-539. The settings on record: CNS Cancer; SF-539; 48 h drug incubation; read-out: GI50. On the procedure:
as §1

Test [13] has as its system CNS Cancer cell lines. Nature of the test: NCI-60 cell line screen, CNS Cancer panel average. The settings on record: average over CNS Cancer panel; read-out: GI50 Average. On the procedure:
as §1

Test [14] concerns M14. Description: NCI-60 cell line screen (SRB), M14. The settings on record: Melanoma; M14; 48 h drug incubation; read-out: GI50. As to the method: as §1
Test [15] deals with SK-MEL-28. Nature of the test: NCI-60 cell line screen (SRB), SK-MEL-28. The conditions noted are these: Melanoma; SK-MEL-28; 48 h drug incubation; read-out: GI50. As to the method:
as §1

Test [16] has as its system UACC-257. Description: NCI-60 cell line screen (SRB), UACC-257. The conditions noted are these: Melanoma; UACC-257; 48 h drug incubation; read-out: GI50. On the procedure: as §1
For test [17], the system named is OVCAR-3. Nature of the test: NCI-60 cell line screen (SRB), OVCAR-3. The conditions noted are these: Ovarian Cancer; OVCAR-3; 48 h drug incubation; read-out: GI50. On the procedure:
as §1

In test [18] the test system is OVCAR-5. Nature of the test: NCI-60 cell line screen (SRB), OVCAR-5. The conditions noted are these: Ovarian Cancer; OVCAR-5; 48 h drug incubation; read-out: GI50. On the procedure: as §1
The test system of test [19] is OVCAR-8. Description: NCI-60 cell line screen (SRB), OVCAR-8. The settings on record: Ovarian Cancer; OVCAR-8; 48 h drug incubation; read-out: GI50. On the procedure:
as §1

For test [20], the system named is A-498. Description: NCI-60 cell line screen (SRB), A-498. The conditions noted are these: Renal Cancer; A-498; 48 h drug incubation; read-out: GI50. As to the method:
as §1

For test [21], the system named is ACHN. Nature of the test: NCI-60 cell line screen (SRB), ACHN. The conditions noted are these: Renal Cancer, 48 h drug incubation, read-out: GI50. As to the method: as §1
In test [22] the test system is CAKI-1. Nature of the test: NCI-60 cell line screen (SRB), CAKI-1. The settings on record: Renal Cancer; CAKI-1; 48 h drug incubation; read-out: GI50. On the procedure:
as §1

The subject of test [23] is Prostate Cancer cell lines. Description: NCI-60 cell line screen, Prostate Cancer panel average. The conditions noted are these: average over Prostate Cancer panel; read-out: GI50 Average. On the procedure: as §1
The subject of test [24] is MDA-MB-231/ATCC. Description: NCI-60 cell line screen (SRB), MDA-MB-231/ATCC. The settings on record: Breast Cancer; MDA-MB-231/ATCC; 48 h drug incubation; read-out: GI50. On the procedure:
as §1

Structures are written as SMILES.

As for `CCOP(=O)(OCC)C(NC(=O)[C@H](Cc1ccc(-c2ccccc2)cc1)NC(=O)c1ccc(OCCC[Si](C)(C)C)cc1)P(=O)(OCC)OCC` [GH1505, N^α-{4-[3-(trimethylsilyl)propoxy]-benzoyl}-N-[bis(dietoxyphosphoryl)methyl]-(4-phenyl-L-phenylalaninamide)], the GI50 in test [1] is 2780 nM; in test [2] it was 2840 nM; in [3], 2000 nM; in test [4] it was 3050 nM; in test [5] it was 5110 nM; in [6], 2620 nM. Besides, the GI50 in [7] is 1930 nM; in test [8] it was 2250 nM; in test [9] it was 2020 nM; in test [10] it was 2190 nM; in test [11], 2070 nM; in test [12], 1820 nM. The GI50 in test [13] worked out at 2010 nM; in [14], 2100 nM; in test [15], 1760 nM; in [16], 2420 nM; in test [17] it was 1870 nM; in [18], 1710 nM. Further, the GI50 in test [19] was found to be 2960 nM; in test [20], 3640 nM; in test [21] it was 2270 nM; in test [22], 2900 nM; in test [23], 2020 nM; in [24], 1620 nM.
